# Test results published in ChEMBL document CHEMBL5113431, “Synthesis and initial in vitro evaluation of PSMA-targeting ligands with a modified aromatic moiety at the lysine ε-nitrogen atom” (Bioorg Med Chem Lett, 2022).
# Biological target: Glutamate carboxypeptidase 2 (Homo sapiens, UniProt Q04609)
# Assay: Inhibition of PSMA in human LNCaP cell extracts using NAAG as substrate by amplex red reagent based assay
# Type: cell-free
# Conditions: not given; call rule not given here
# Glutamate carboxypeptidase 2, sequence (Q04609 whole entry): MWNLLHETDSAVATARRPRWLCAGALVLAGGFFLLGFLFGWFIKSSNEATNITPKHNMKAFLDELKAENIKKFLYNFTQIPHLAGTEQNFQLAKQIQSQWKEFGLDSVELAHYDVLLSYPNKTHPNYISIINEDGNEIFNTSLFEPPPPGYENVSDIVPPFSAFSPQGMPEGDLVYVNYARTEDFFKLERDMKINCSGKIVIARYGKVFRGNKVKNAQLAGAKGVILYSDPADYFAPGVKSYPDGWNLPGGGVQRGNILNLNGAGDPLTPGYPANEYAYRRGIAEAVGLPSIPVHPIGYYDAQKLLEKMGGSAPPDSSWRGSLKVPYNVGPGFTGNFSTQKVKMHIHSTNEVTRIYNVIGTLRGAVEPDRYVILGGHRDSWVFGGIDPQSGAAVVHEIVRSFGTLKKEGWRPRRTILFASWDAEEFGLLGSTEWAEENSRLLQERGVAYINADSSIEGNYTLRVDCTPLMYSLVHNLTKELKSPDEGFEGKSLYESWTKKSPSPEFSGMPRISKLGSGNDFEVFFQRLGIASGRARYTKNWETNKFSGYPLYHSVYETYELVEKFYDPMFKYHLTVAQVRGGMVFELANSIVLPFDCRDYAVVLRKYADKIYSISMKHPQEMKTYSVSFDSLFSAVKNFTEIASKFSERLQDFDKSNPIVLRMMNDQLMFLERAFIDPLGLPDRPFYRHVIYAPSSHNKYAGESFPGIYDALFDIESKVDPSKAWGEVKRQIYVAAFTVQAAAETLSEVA
row,SMILES,IC50 [nM]
1,[N-]=[N+]=NCCCNC(=O)[C@H](Cc1ccccc1)NC(=O)[C@H](Cc1ccccc1)NC(=O)CCC(=O)NCCCCCC(=O)N(CCCC[C@H](NC(=O)N[C@@H](CCC(=O)O)C(=O)O)C(=O)O)Cc1cccc([N+](=O)[O-])c1,23
2,CCOc1ccc(CN(CCCC[C@H](NC(=O)N[C@@H](CCC(=O)O)C(=O)O)C(=O)O)C(=O)CCCCCNC(=O)CCC(=O)N[C@@H](Cc2ccccc2)C(=O)N[C@@H](Cc2ccccc2)C(=O)NCCCN=[N+]=[N-])cc1,51
3,[N-]=[N+]=NCCCNC(=O)[C@H](Cc1ccccc1)NC(=O)[C@H](Cc1ccccc1)NC(=O)CCC(=O)NCCCCCC(=O)N(CCCC[C@H](NC(=O)N[C@@H](CCC(=O)O)C(=O)O)C(=O)O)Cc1ccccc1[N+](=O)[O-],16
4,[N-]=[N+]=NCCCNC(=O)[C@H](Cc1ccccc1)NC(=O)[C@H](Cc1ccccc1)NC(=O)CCC(=O)NCCCCCC(=O)N(CCCC[C@H](NC(=O)N[C@@H](CCC(=O)O)C(=O)O)C(=O)O)Cc1ccc(O)cc1,24
5,COc1ccc(CN(CCCC[C@H](NC(=O)N[C@@H](CCC(=O)O)C(=O)O)C(=O)O)C(=O)CCCCCNC(=O)CCC(=O)N[C@@H](Cc2ccccc2)C(=O)N[C@@H](Cc2ccccc2)C(=O)NCCCN=[N+]=[N-])c(OC)c1,23
6,[N-]=[N+]=NCCCNC(=O)[C@H](Cc1ccc(O)cc1)NC(=O)[C@H](Cc1ccccc1)NC(=O)CCC(=O)NCCCCCC(=O)N(CCCC[C@H](NC(=O)N[C@@H](CCC(=O)O)C(=O)O)C(=O)O)Cc1ccccc1[N+](=O)[O-],101
7,[N-]=[N+]=NCCCNC(=O)[C@H](Cc1ccc(O)c([N+](=O)[O-])c1)NC(=O)[C@H](Cc1ccccc1)NC(=O)CCC(=O)NCCCCCC(=O)N(CCCC[C@H](NC(=O)N[C@@H](CCC(=O)O)C(=O)O)C(=O)O)Cc1ccc(C(=O)O)cc1,2.1
8,COc1ccccc1CN(CCCC[C@H](NC(=O)N[C@@H](CCC(=O)O)C(=O)O)C(=O)O)C(=O)CCCCCNC(=O)CCC(=O)N[C@@H](Cc1ccccc1)C(=O)N[C@@H](Cc1ccccc1)C(=O)NCCCN=[N+]=[N-],38
9,COc1ccc(CN(CCCC[C@H](NC(=O)N[C@@H](CCC(=O)O)C(=O)O)C(=O)O)C(=O)CCCCCNC(=O)CCC(=O)N[C@@H](Cc2ccccc2)C(=O)N[C@@H](Cc2ccccc2)C(=O)NCCCN=[N+]=[N-])cc1,112
10,[N-]=[N+]=NCCCNC(=O)[C@H](Cc1ccccc1)NC(=O)[C@H](Cc1ccccc1)NC(=O)CCC(=O)NCCCCCC(=O)N(CCCC[C@H](NC(=O)N[C@@H](CCC(=O)O)C(=O)O)C(=O)O)Cc1ccc(C(=O)O)cc1,7

# Continued, values first:
row,IC50 [nM],SMILES
1,35,[N-]=[N+]=NCCCNC(=O)[C@H](Cc1ccccc1)NC(=O)[C@H](Cc1ccccc1)NC(=O)CCC(=O)NCCCCCC(=O)N(CCCC[C@H](NC(=O)N[C@@H](CCC(=O)O)C(=O)O)C(=O)O)Cc1ccc([N+](=O)[O-])cc1
2,19,[N-]=[N+]=NCCCNC(=O)[C@H](Cc1ccc(O)cc1)NC(=O)[C@H](Cc1ccccc1)NC(=O)CCC(=O)NCCCCCC(=O)N(CCCC[C@H](NC(=O)N[C@@H](CCC(=O)O)C(=O)O)C(=O)O)Cc1ccc(C(=O)O)cc1
3,1.5,[N-]=[N+]=NCCCNC(=O)[C@H](Cc1ccc(O)c([N+](=O)[O-])c1)NC(=O)[C@H](Cc1ccccc1)NC(=O)CCC(=O)NCCCCCC(=O)N(CCCC[C@H](NC(=O)N[C@@H](CCC(=O)O)C(=O)O)C(=O)O)Cc1cccc(Cl)c1
4,88,COc1ccc(CN(CCCC[C@H](NC(=O)N[C@@H](CCC(=O)O)C(=O)O)C(=O)O)C(=O)CCCCCNC(=O)CCC(=O)N[C@@H](Cc2ccccc2)C(=O)N[C@@H](Cc2ccccc2)C(=O)NCCCN=[N+]=[N-])cc1OC

# Tested on: not listed separately
# Assay: Drug uptake in PSMA overexpressing human LNCaP cells at 4 to 40 nM by flow cytometry
# Type: ADME, cell-based
# Conditions: 0.04 µM, dose 4-40 nM
row,Drug uptake,SMILES
1,Active,CN1/C(=C/C=C/C=C/C2=[N+](CCCCCC(=O)NCc3cn(CCCNC(=O)[C@H](Cc4ccc(O)cc4)NC(=O)[C@H](Cc4ccccc4)NC(=O)CCC(=O)NCCCCCC(=O)N(CCCC[C@H](NC(=O)N[C@@H](CCC(=O)O)C(=O)O)C(=O)O)Cc4cccc(Cl)c4)nn3)c3ccc(S(=O)(=O)[O-])cc3C2(C)C)C(C)(C)c2cc(S(=O)(=O)O)ccc21
2,Active,CN1/C(=C/C=C/C=C/C2=[N+](CCCCCC(=O)NCc3cn(CCCNC(=O)[C@H](Cc4ccccc4)NC(=O)[C@H](Cc4ccccc4)NC(=O)CCC(=O)NCCCCCC(=O)N(CCCC[C@H](NC(=O)N[C@@H](CCC(=O)O)C(=O)O)C(=O)O)Cc4ccccc4[N+](=O)[O-])nn3)c3ccc(S(=O)(=O)[O-])cc3C2(C)C)C(C)(C)c2cc(S(=O)(=O)O)ccc21
3,Active,CN1/C(=C/C=C/C=C/C2=[N+](CCCCCC(=O)NCc3cn(CCCNC(=O)[C@H](Cc4ccccc4)NC(=O)[C@H](Cc4ccccc4)NC(=O)CCC(=O)NCCCCCC(=O)N(CCCC[C@H](NC(=O)N[C@@H](CCC(=O)O)C(=O)O)C(=O)O)Cc4ccc(C(=O)O)cc4)nn3)c3ccc(S(=O)(=O)[O-])cc3C2(C)C)C(C)(C)c2cc(S(=O)(=O)O)ccc21
